In paper PMC12858467, “In vitro toxicokinetics and metabolic profiling of methoxycathinones and methylthiocathinones using human liver systems and hyphenated mass spectrometry” (Archives of Toxicology, 2025):
Where two headings read alike, the source gives them in different places.

What was measured:
Format in all cases: in vitro ADME
[1] = In vitro plasma protein binding (ultrafiltration, Centrifree); details: human, pooled human blood plasma, 30 min, 37 °C, ultrafiltration
Description: (§1) PPB was investigated according to a previous study with minor modifications (Kroesen et al. [2025]). Fresh and pooled human blood plasma (450 µL) was spiked with 50 µL of a 5 µM methanolic solution of 4MeO-NE-BP, 4MeO-αP-BP, 4MeO-αP-VP, 4MeS-NE-BP, 4MeS-αP-BP, or 4MeS-αMor-PrP. The mixture was incubated for 30 min at 37 °C and with gentle shaking at 200 rpm. […] The Centrifree devices were centrifuged for 35 min at 1600 × g to obtain 100 µL of the ultrafiltrate (UF). […] Experiments were performed in quadruplicate. Fraction unbound (fu) and PPB were determined by comparing the area ratios of the compound and trimipramine-d3 as an internal standard in the UF and GA using the following equations:1 fu=peak area ratiocompoundUF/ISUF/peak area ratiocompoundGA/ISGA 2 PPB[\%]=1-fu∗100.

[2] = system: pooled human liver S9 fraction (pHLS9) and HepaRG cells; experiment: In vitro metabolism by pHLS9 and HepaRG cells (LC-HRMS/MS metabolite identification); details: 25 µM substrate
[3] = system: plasma proteins (pooled human blood plasma); experiment: In vitro plasma protein binding (ultrafiltration, Centrifree)
Description: as §1

CYP2D6 = target: T1, CYP2D6 (Homo sapiens, UniProt P10635); experiment: Monooxygenases activity screening, CYP2D6; details: 25 µM, 30 min, 37 °C
T1 construct: purchased Discovery Life Sciences (Huntsville, LA, USA); host or cells: baculovirus-infected insect cells (microsomes, Supersomes)
T1 sequence (P10635 whole entry): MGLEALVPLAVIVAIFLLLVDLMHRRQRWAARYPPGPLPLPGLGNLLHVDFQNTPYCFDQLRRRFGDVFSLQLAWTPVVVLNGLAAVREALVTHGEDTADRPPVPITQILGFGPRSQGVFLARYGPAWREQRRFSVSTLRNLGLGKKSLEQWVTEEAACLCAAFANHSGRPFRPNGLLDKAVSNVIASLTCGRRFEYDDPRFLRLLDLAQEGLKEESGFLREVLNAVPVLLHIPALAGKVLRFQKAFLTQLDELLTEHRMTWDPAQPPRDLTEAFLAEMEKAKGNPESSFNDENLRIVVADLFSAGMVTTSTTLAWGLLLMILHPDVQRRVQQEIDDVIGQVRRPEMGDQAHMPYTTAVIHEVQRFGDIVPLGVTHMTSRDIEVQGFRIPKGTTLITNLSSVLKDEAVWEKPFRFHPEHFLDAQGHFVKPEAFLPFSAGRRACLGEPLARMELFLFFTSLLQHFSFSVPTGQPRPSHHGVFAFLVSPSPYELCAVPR
Description: For incubations with CYP2A6 or CYP2C9, phosphate buffer was replaced with 90 mM Tris buffer, according to the manufacturer’s guideline. […] All incubations were done in duplicate and concentrations were fixed. Verapamil (25 µM) was incubated as a positive control.

[4] = read-out: fu (unbound fraction)

Row | SMILES | fraction unbound at 30 min, 0.5 µM ([1]; read-out: PPB, % (converted)) | fraction unbound at 30 min, 0.5 µM [1, 4] | metabolic reactions (metabolite IDs) identified [2] | number of metabolites tentatively identified [2] | Plasma protein binding, class in words [3] | PPB, % ([3]; 30 min, 37 °C, ultrafiltration) [%] | S-demethylation, only mediated by one CYP isoform (CYP2D6)
1 | CSc1ccc(C(=O)C(C)N2CCOCC2)cc1 (stereo not drawn) [4MeS-αMor-PrP, 4’-methylthio-2-morpholinopropiophenone] | 0.14 | 0.14 | S-demethylation (MT3.1), hydroxylation (MT3.2), N-oxidation (MT3.3), oxo reduction (MT3.4), lactam formation (MT3.6), N,O-bis-dealkylation (MT3.7), dehydrogenation (MT3.9), and combinations thereof | 10 |  |  | 
2 | CCNC(CC)C(=O)c1ccc(OC)cc1 (stereo not drawn) [Compound 4MeO-NE-BP, 4’-methoxy-N-ethylbutyrophenone] | > 0.5 | 0.61 | O-demethylation (MO1.1), hydroxylation (MO1.2), N-dealkylation (MO1.3), hydroxylamine formation (MO1.4), and O-demethylation + sulfation (MO1.5) | 5 | low | 39 | 
3 | CCNC(CC)C(=O)c1ccc(SC)cc1 (stereo not drawn) [Compound 4MeS-NE-BP, 4’-methylthio-N-ethylbutyrophenone] | 0.13 | 0.13 | S-demethylation (MT1.1), hydroxylation (MT1.2), N-dealkylation (MT1.3), hydroxylamine formation (MT1.4), hydroxylation + oxidation (MT1.5), N-dealkylation + S-demethylation (MT1.6), and hydroxylamine formation + hydroxylation (MT1.7) | 7 |  |  | CYP2D6
